In patent publication US20220096516A1, “OLIGONUCLEOTIDE MOLECULE AND APPLICATION THEREOF IN TUMOR THERAPY” (Ractigen Therapeutics, priority 2019, published 2022):
d = 2'-deoxy (DNA); r = 2'-OH (RNA)

System: LHPP gene
Test: High-throughput screening of saRNAs targeting LHPP promoter: LHPP mRNA by one-step RT-qPCR in Huh7 cells
Format: cell-based, human
Conditions: 10 nM saRNA, 72 hours, relative to control (Mock)
Method in brief: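 Huh7 cells were transfected with 10 nM saRNA using RNAiMax and lysed 72 h later. LHPP mRNA was quantified by one-step RT-qPCR in triplicate wells. Expression was normalised to HPRT1 and TBP and given as fold change versus mock-transfected cells.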

Row | Substance | Fold of changes in relative LHPP mRNA expression level [fold] | Fold of changes in relative LHPP mRNA expression level (log2)
1 | RAG7-690: saRNA duplex; sense CCUAUGCAUCCUCAUCUAUTT (SEQ ID NO: 42), antisense AUAGAUGAGGAUGCAUAGGTT (SEQ ID NO: 206) (sugars from the 5' end r19 d2, backbone not given here) | 1.42 | 0.51
2 | RAG7-691: saRNA duplex; sense UCCUAUGCAUCCUCAUCUATT (SEQ ID NO: 30), antisense UAGAUGAGGAUGCAUAGGATT (SEQ ID NO: 194) (sugars from the 5' end r19 d2, backbone not given here) | 1.50 | 0.58
3 | RAG7-692: saRNA duplex; sense GUCCUAUGCAUCCUCAUCUTT (SEQ ID NO: 124), antisense AGAUGAGGAUGCAUAGGACTT (SEQ ID NO: 288) (sugars from the 5' end r19 d2, backbone not given here) | 1.17 | 0.22
4 | RAG7-693: saRNA duplex; sense GGUCCUAUGCAUCCUCAUCTT (SEQ ID NO: 98), antisense GAUGAGGAUGCAUAGGACCTT (SEQ ID NO: 262) (sugars from the 5' end r19 d2, backbone not given here) | 1.22 | 0.29
5 | RAG7-695: saRNA duplex; sense CAGGUCCUAUGCAUCCUCATT (SEQ ID NO: 54), antisense UGAGGAUGCAUAGGACCUGTT (SEQ ID NO: 218) (sugars from the 5' end r19 d2, backbone not given here) | 1.36 | 0.44
6 | RAG7-696: saRNA duplex; sense CCAGGUCCUAUGCAUCCUCTT (SEQ ID NO: 17), antisense GAGGAUGCAUAGGACCUGGTT (SEQ ID NO: 181) (sugars from the 5' end r19 d2, backbone not given here) | 1.58 | 0.66
7 | RAG7-697: saRNA duplex; sense CCCAGGUCCUAUGCAUCCUTT (SEQ ID NO: 41), antisense AGGAUGCAUAGGACCUGGGTT (SEQ ID NO: 205) (sugars from the 5' end r19 d2, backbone not given here) | 1.43 | 0.51
8 | RAG7-698: saRNA duplex; sense GCCCAGGUCCUAUGCAUCCTT (SEQ ID NO: 118), antisense GGAUGCAUAGGACCUGGGCTT (SEQ ID NO: 282) (sugars from the 5' end r19 d2, backbone not given here) | 1.18 | 0.24
9 | RAG7-702: saRNA duplex; sense CUCAGCCCAGGUCCUAUGCTT (SEQ ID NO: 140), antisense GCAUAGGACCUGGGCUGAGTT (SEQ ID NO: 304) (sugars from the 5' end r19 d2, backbone not given here) | 1.14 | 0.19
10 | RAG7-704: saRNA duplex; sense UUCUCAGCCCAGGUCCUAUTT (SEQ ID NO: 112), antisense AUAGGACCUGGGCUGAGAATT (SEQ ID NO: 276) (sugars from the 5' end r19 d2, backbone not given here) | 1.19 | 0.26
11 | RAG7-706: saRNA duplex; sense UCUUCUCAGCCCAGGUCCUTT (SEQ ID NO: 15), antisense AGGACCUGGGCUGAGAAGATT (SEQ ID NO: 179) (sugars from the 5' end r19 d2, backbone not given here) | 1.63 | 0.70
12 | RAG7-707: saRNA duplex; sense UUCUUCUCAGCCCAGGUCCTT (SEQ ID NO: 8), antisense GGACCUGGGCUGAGAAGAATT (SEQ ID NO: 172) (sugars from the 5' end r19 d2, backbone not given here) | 1.72 | 0.78
13 | RAG7-708: saRNA duplex; sense UUUCUUCUCAGCCCAGGUCTT (SEQ ID NO: 106), antisense GACCUGGGCUGAGAAGAAATT (SEQ ID NO: 270) (sugars from the 5' end r19 d2, backbone not given here) | 1.21 | 0.27
14 | RAG7-709: saRNA duplex; sense UUUUCUUCUCAGCCCAGGUTT (SEQ ID NO: 126), antisense ACCUGGGCUGAGAAGAAAATT (SEQ ID NO: 290) (sugars from the 5' end r19 d2, backbone not given here) | 1.17 | 0.22
15 | RAG7-710: saRNA duplex; sense GUUUUCUUCUCAGCCCAGGTT (SEQ ID NO: 122), antisense CCUGGGCUGAGAAGAAAACTT (SEQ ID NO: 286) (sugars from the 5' end r19 d2, backbone not given here) | 1.18 | 0.24
16 | RAG7-715: saRNA duplex; sense GUCCCGUUUUCUUCUCAGCTT (SEQ ID NO: 148), antisense GCUGAGAAGAAAACGGGACTT (SEQ ID NO: 312) (sugars from the 5' end r19 d2, backbone not given here) | 1.13 | 0.18
17 | RAG7-720: saRNA duplex; sense UGAUAGUCCCGUUUUCUUCTT (SEQ ID NO: 62), antisense GAAGAAAACGGGACUAUCATT (SEQ ID NO: 226) (sugars from the 5' end r19 d2, backbone not given here) | 1.33 | 0.41
18 | RAG7-721: saRNA duplex; sense GUGAUAGUCCCGUUUUCUUTT (SEQ ID NO: 133), antisense AAGAAAACGGGACUAUCACTT (SEQ ID NO: 297) (sugars from the 5' end r19 d2, backbone not given here) | 1.16 | 0.21
19 | RAG7-722: saRNA duplex; sense UGUGAUAGUCCCGUUUUCUTT (SEQ ID NO: 135), antisense AGAAAACGGGACUAUCACATT (SEQ ID NO: 299) (sugars from the 5' end r19 d2, backbone not given here) | 1.15 | 0.21
20 | RAG7-726: saRNA duplex; sense GCAUUGUGAUAGUCCCGUUTT (SEQ ID NO: 127), antisense AACGGGACUAUCACAAUGCTT (SEQ ID NO: 291) (sugars from the 5' end r19 d2, backbone not given here) | 1.17 | 0.22
